# Source: publication PMC7377239, “Cardiovascular Effects of Polychlorinated Biphenyls and Their Major Metabolites” (Environmental Health Perspectives, 2020)
# Where a name gives a salt, the structure may show the parent alone. Read-outs that look alike come from different tables or passages of the source.
# Tested on: iCell endothelial cells (human iPSC-derived ECs)
# Assay: High-content imaging cytotoxicity in iCell endothelial cells, 24 h
# Type: cell-based
# Details: Homo sapiens, Endothelial cell, iPSC-EC; for viability at 0.1 µM / activity at 0.1 µM: 0.10 µM
# Method in brief: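 Human iPSC-derived endothelial cells (passages 1–5) were grown to a fibronectin-coated monolayer, then exposed 24 h at 37 °C with 0.5% DMSO vehicle. Staining was Hoechst 33342, MitoTracker Orange and calcein AM, read by high-content imaging. Point of departure came from 4-parameter logistic fits, with a 1-SD vehicle cutoff and 100 µM as the top concentration.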
# [1] = 0.00 µM = 100.00, read-out: endo.cyto.24hr
# [2] = 0.00 µM = 100.00, read-out: endo.mito.24hr
# [3] = 0.00 µM = 100.00, read-out: endo.mitoint.24hr
# [4] = 0.00 µM = 100.00, read-out: endo.nma.24hr
# [5] = 0.00 µM = 100.00, read-out: endo.tc.24hrs
# [6] = 24 hr, 0.00 µM control = 100.00, read-out: endo.cyto.24hr
# [7] = 24 hr, 0.00 µM control = 100.00, read-out: endo.mito.24hr
# [8] = 24 hr, 0.00 µM control = 100.00, read-out: endo.mitoint.24hr
# [9] = 24 hr, 0.00 µM control = 100.00, read-out: endo.nma.24hr
# [10] = 24 hr, 0.00 µM control = 100.00, read-out: endo.tc.24hrs
# [11] = 24 hr, top concentration 100.00 µM, read-out: endo.cyto.24hr POD
# [12] = 24 hr, top concentration 100.00 µM, read-out: endo.mito.24hr POD
# [13] = 24 hr, top concentration 100.00 µM, read-out: endo.mitoint.24hr POD
# [14] = 24 hr, top concentration 100.00 µM, read-out: endo.nma.24hr POD
# [15] = 24 hr, top concentration 100.00 µM, read-out: endo.tc.24hrs POD
smiles,measurement,setting,value
COc1cc(Cl)c(-c2cc(Cl)ccc2Cl)cc1Cl [4-OMe PCB52],viability at 0.01 µM,[1],104%
same,activity at 0.01 µM,[2],104%
same,activity at 0.01 µM,[3],88.9%
same,activity at 0.01 µM,[4],102%
same,viability at 0.01 µM,[5],104%
same,viability at 0.1 µM,[1],101%
same,activity at 0.1 µM,[2],101%
same,activity at 0.1 µM,[3],88%
same,activity at 0.1 µM,[4],102%
same,viability at 0.1 µM,[5],101%
same,viability at 1 µM,[1],104%
same,activity at 1 µM,[2],103%
same,activity at 1 µM,[3],84.8%
same,activity at 1 µM,[4],100%
same,viability at 1 µM,[5],104%
same,viability at 10 µM,[1],106%
same,activity at 10 µM,[2],106%
same,activity at 10 µM,[3],92.2%
same,activity at 10 µM,[4],99.7%
same,viability at 10 µM,[5],106%
same,viability at 100 µM,[1],53.2%
same,activity at 100 µM,[2],48.4%
same,activity at 100 µM,[3],74.5%
same,activity at 100 µM,[4],117%
same,viability at 100 µM,[5],56.6%
same,minimal effective concentration,"100.00 = highest concentration tested, read-out: endo.cyto.24hr POD",43.5 µM
same,minimal effective concentration,"100.00 = highest concentration tested, read-out: endo.mito.24hr POD",43.5 µM
same,minimal effective concentration,"100.00 = highest concentration tested, read-out: endo.mitoint.24hr POD",100 µM
same,minimal effective concentration,"100.00 = highest concentration tested, read-out: endo.nma.24hr POD",56.1 µM
same,minimal effective concentration,"100.00 = highest concentration tested, read-out: endo.tc.24hrs POD",40.3 µM
O=S(=O)(O)Oc1ccc(-c2cccc(Cl)c2)cc1Cl [4-yl PCB 11 sulfate],viability at 0.01 µM,[6],96.1%
same,activity at 0.01 µM,[7],96.2%
same,activity at 0.01 µM,[8],99.7%
same,activity at 0.01 µM,[9],103%
same,viability at 0.01 µM,[10],96.1%
same,viability at 0.1 µM,[6],102%
same,activity at 0.1 µM,[7],101%
same,activity at 0.1 µM,[8],90.5%
same,activity at 0.1 µM,[9],102%
same,viability at 0.1 µM,[10],102%
same,viability at 1 µM,[6],98%
same,activity at 1 µM,[7],97.8%
same,activity at 1 µM,[8],90.8%
same,activity at 1 µM,[9],103%
same,viability at 1 µM,[10],98%
same,viability at 10 µM,[6],104%
same,activity at 10 µM,[7],104%
same,activity at 10 µM,[8],87.3%
same,activity at 10 µM,[9],98.8%
same,viability at 10 µM,[10],104%
same,viability at 100 µM,[6],98.5%
same,activity at 100 µM,[7],98.6%
same,activity at 100 µM,[8],84.2%
same,activity at 100 µM,[9],99.3%
same,viability at 100 µM,[10],98.5%
same,minimal effective concentration,[11],100 µM
same,minimal effective concentration,[12],100 µM
same,minimal effective concentration,[13],100 µM
same,minimal effective concentration,[14],100 µM
same,minimal effective concentration,[15],100 µM
O=S(=O)(O)Oc1cc(Cl)c(-c2cc(Cl)ccc2Cl)cc1Cl [4-yl PCB 52 sulfate],viability at 0.01 µM,[6],99.1%
same,activity at 0.01 µM,[7],98.6%
same,activity at 0.01 µM,[8],93.7%
same,activity at 0.01 µM,[9],105%
same,viability at 0.01 µM,[10],99.1%
same,viability at 0.1 µM,[6],92.5%
same,activity at 0.1 µM,[7],92.7%
same,activity at 0.1 µM,[8],90.1%
same,activity at 0.1 µM,[9],105%
same,viability at 0.1 µM,[10],92.5%
same,viability at 1 µM,[6],95.5%
same,activity at 1 µM,[7],96.1%
same,activity at 1 µM,[8],96.9%
same,activity at 1 µM,[9],102%
same,viability at 1 µM,[10],95.5%
same,viability at 10 µM,[6],104%
same,activity at 10 µM,[7],103%
same,activity at 10 µM,[8],82.8%
same,activity at 10 µM,[9],99.1%
same,viability at 10 µM,[10],104%
same,viability at 100 µM,[6],71.2%
same,activity at 100 µM,[7],66.7%
same,activity at 100 µM,[8],92.6%
same,activity at 100 µM,[9],104%
same,viability at 100 µM,[10],71.4%
same,minimal effective concentration,[11],41.2 µM
same,minimal effective concentration,[12],41.2 µM
same,minimal effective concentration,[13],100 µM
same,minimal effective concentration,[14],100 µM
same,minimal effective concentration,[15],50.3 µM
